Laboratory results published in patent US20260115312A1, “Conjugates for neuroretinal drug delivery” (Mireca Medicines GmbH, priority 2022, published 2026).

Columns and labels:
MCT2 = settings: cited from earlier work
[1] = In vitro drug release from liposomes; type: physicochemical; settings: liposomes according to the invention, in vitro set-up
Experimental: Complete release of CN04 from liposomes according to the invention was shown in an in vitro set-up within 48 h. The release rate for CN03 and CN04 can be lowered by precipitation within the liposome cavity with a specific salt using a remote loading technique similar to what has been done for liposomal doxorubicin formulations. CN03 has previously been remote loaded in similar liposomes using calcium acetate salts (Vighi, E., et al., PNAS, 2018, 115(13)).

[2] = test system: photoreceptors in rd1 retinal explant cultures; test: TUNEL assay of dying photoreceptors in rd1 organotypic retinal explant cultures; type: cell-based, mouse; settings: free drug solution, 160 μM in 20 μL, final 3.14 μM, P7-P11
Experimental: FIG. 3A—Treatment of organotypic retinal explant cultures derived from the rd1 mouse model. Retinas were cultured at P5 and treated with either liposome-encapsulated or non-encapsulated (free) neuroprotective drugs (CN03 or CN04) from P7-P11. Assuming an equal distribution across the entire culturing medium, the final drug concentration was 3.14 μM for all treatments. The amount of dying photoreceptors in tissue sections from cultures under various treatment conditions was assessed using the TUNEL assay. DAPI was used to distinguish the outer nuclear layer (ONL). INL=inner nuclear layer. Scale bar 50 μm.
FIG. 3B—As for 3A, shown are percentages of dying (TUNEL+) cells in the ONL. Under non-treated (NT) conditions, the number of TUNEL+ cells are high in the rd1 model. Administration of free CN03 or CN04 had no significant effect on cell death. […]
(§1) Retinas derived from the rd1 or rd10 mouse models were cultured following the protocol described above and treated with the drugs CN03 or CN04. […] 11 z-stacks 1 μm apart were recorded, and from the projected images, the number of TUNEL-positive cells in the outer nuclear layer was manually counted. For the rd10 derived cultures, the average number of photoreceptor rows residing in the outer nuclear layer was counted from microscopy images, using the same imaging method. […]

[3] = test system: photoreceptors in rd10 retinal explant cultures; test: Remaining photoreceptor rows in rd10 organotypic retinal explant cultures; type: cell-based, mouse; settings: treated P11 until P17 or P24, DSPC-containing liposomes, same drug concentration
Experimental: FIG. 4A—Treatment of organotypic retinal explant cultures derived from the rd10 mice model. Retinas were cultured at P9 and treated from P11 until either P17 or P24 with free neuroprotective CN03 or with CN03 encapsulated in pyruvate-liposomes (Lp-Pyr/CN03). Representative images of retinal explant culture sections at P17 and P24. DAPI used as nuclear stain. ONL=outer nuclear layer, INL=inner nuclear layer.
FIG. 4B—As for 4A, shown is the number of remaining photoreceptor rows in the tissue sections. NT and CN03 substantially overlap. Results represent mean±SD. At P17: n=4-6. At P24: n=4-5. **=p≤0.01 between the Lp-Pyr/CN03 and CN03 or NT group. Statistical analysis: Two-way ANOVA with Tukey's multiple comparison test. Scale bar 50 μm.
as §1, with “CN04. A treatment was done by applying a 20 μL solution containing 160 μM drug (either loaded in liposomes or in a free solution) to the top of the cultures.” for “CN04.”

MCT1 = settings: cited from earlier work

Compound: Cc1n[nH]c(C)c1Cc1sc2c(c1C(=O)N1C[C@H](O)CO1)c(=O)n(C)c(=O)n2CC(C)C [AR-C155858]
- Ki (MCT2): < 10 nM

Compound: O=c1c2nc(Sc3ccc(Cl)cc3)n([C@@H]3O[C@@H]4CO[P@@](=O)(S)O[C@@H]4C3O)c2nc2[nH]c(-c3ccccc3)cn12 (stereo partly drawn) [CN04, Rp-8-pCPT-PET-cGMPS]
- Complete release from liposomes (time) [1]: ≤ 48 h
- Dying photoreceptors (TUNEL+ cells in ONL) [2]: no significant reduction in dying photoreceptors

Compound: O=c1c2nc(Br)n([C@@H]3O[C@@H]4CO[P@@](=O)(S)O[C@@H]4C3O)c2nc2[nH]c(-c3ccccc3)cn12 (stereo partly drawn) [CN03, Rp-8-Br-PET-cGMPS]
- Dying photoreceptors (TUNEL+ cells in ONL) [2]: no significant reduction in dying photoreceptors
- Number of remaining photoreceptor rows [3]: did not achieve a rescue effect

Compound: Cc1[nH]nc(C(F)(F)F)c1Cc1sc2c(c1C(=O)N1C[C@](C)(O)CO1)c(=O)n(C)c(=O)n2C(C)C [AZD3965]
- Ki (MCT1): 1.6 nM
